Experiments:
Assay type in all cases: physicochemical
[1] = Solid-state stability under accelerated storage, purity via HPLC; conditions: for stability with respect to change in TAK-924 chemical purity (% Area) and physical form / overall chemical and physical stability: accelerated storage; for stability with respect to change in TAK-924 chemical purity (% Area) and physical form: compared to Form 1; for overall chemical and physical stability: overall stability data
Experimental: (§1) Solid-state stability studies of Forms 1, 9, and 12 were performed to assess the relative stability of new anhydrous Forms 9 and 12. Solid samples of each pattern were stored in open and closed glass vials at accelerated conditions (40° C./75% RH open and closed, and 60° C. closed). […]

[2] = Solid-state stability under accelerated storage, polymorphic form via XRPD; conditions: T-6 Days, hydrochloride
Experimental: as §1

[3] = Solubility of solid form; conditions: pH 2.33; pH of 2.33
[4] = 40° C./75% RH Closed, T-3.5 Weeks, hydrochloride
[5] = 40° C./75% RH Closed, T-6 Days, hydrochloride
[6] = 40° C./75% RH Open, T-3.5 Weeks, hydrochloride
[7] = 40° C./75% RH Open, T-6 Days, hydrochloride
[8] = 60° C. (closed), T-3.5 Weeks, hydrochloride
[9] = 60° C. (closed), T-6 Days, hydrochloride

| SMILES | HPLC Purity (% Area TAK-924) [1, 4] [% Area] | HPLC Purity change from T-0 [1, 4] | HPLC Purity (% Area TAK-924) [1, 5] [% Area] | HPLC Purity change from T-0 [1, 5] | HPLC Purity (% Area TAK-924) [1, 6] [% Area] | HPLC Purity change from T-0 [1, 6] | HPLC Purity (% Area TAK-924) [1, 7] [% Area] | HPLC Purity change from T-0 [1, 7] | HPLC Purity (% Area TAK-924) [1, 8] [% Area] | HPLC Purity change from T-0 [1, 8] | HPLC Purity (% Area TAK-924) [1, 9] [% Area] | HPLC Purity change from T-0 [1, 9] | HPLC Purity (% Area TAK-924), Initial (T-0) ([1]; Initial (T-0), before accelerated storage, hydrochloride) [% Area] | XRPD Results (polymorphic form after accelerated storage) ([2]; 40° C./75% RH Closed) | XRPD Results (polymorphic form after accelerated storage) ([2]; 60° C. (closed)) | solubility [3] [µg/mL] | stability with respect to change in TAK-924 chemical purity (% Area) and physical form [1] | overall chemical and physical stability [1] |
| --- | --- | --- | --- | --- | --- | --- | --- | --- | --- | --- | --- | --- | --- | --- | --- | --- | --- | --- |
| Cl.NS(=O)(=O)OC[C@@H]1C[C@@H](n2ccc3c(N[C@H]4CCc5ccccc54)ncnc32)C[C@@H]1O [Compound Form 1, ((1S,2S,4R)-4-{4-[(1S)-2,3-dihydro-1H-inden-1-ylamino]-7H-pyrrolo[2,3-d]pyrimidin-7-yl}-2-hydroxycyclopentyl)methyl sulfamate hydrochloride] | 98.1 | (−0.9%) | 98.6 | (−0.4%) | 98.8 | (−0.2%) | 98.9 | (−0.1%) | 86.6 | (−13.4%) | 94.4 | (−5.6%) | 99.0 | Form 1 | Form 1 |  |  |  |
| Cl.NS(=O)(=O)OC[C@@H]1C[C@@H](n2ccc3c(N[C@H]4CCc5ccccc54)ncnc32)C[C@@H]1O [Compound Form 9, ((1S,2S,4R)-4-{4-[(1S)-2,3-dihydro-1H-inden-1-ylamino]-7H-pyrrolo[2,3-d]pyrimidin-7-yl}-2-hydroxycyclopentyl)methyl sulfamate hydrochloride] |  |  |  |  |  |  |  |  |  |  |  |  |  |  |  | ~7800 | stable when compared to Form 1 | chemically and physically stable |
| Cl.NS(=O)(=O)OC[C@@H]1C[C@@H](n2ccc3c(N[C@H]4CCc5ccccc54)ncnc32)C[C@@H]1O [Compound Form 12, ((1S,2S,4R)-4-{4-[(1S)-2,3-dihydro-1H-inden-1-ylamino]-7H-pyrrolo[2,3-d]pyrimidin-7-yl}-2-hydroxycyclopentyl)methyl sulfamate hydrochloride] |  |  |  |  |  |  |  |  |  |  |  |  |  |  |  |  | stable when compared to Form 1 | chemically and physically stable |

Source: patent US20240368165A1, “SOLID STATE FORMS OF HYDROCHLORIDE SALT OF ((1S,2S,4R)-4-{4-[(1S)-2,3-DIHYDRO-1H-INDEN-1-YLAMINO]-7H-PYRROLO[2,3-D]PYRIMIDIN-7-YL}-2-HYDROXYCYCLOPENTYL)METHYL SULFAMATE” (Takeda Pharmaceutical Company Limited, priority 2020, published 2024)
